In patent US7232798B2, “Neuroprotection and neuroegenisis by administering cyclic prolyl glycine” (priority 2001, dated 2007):

Columns and labels:
[1] = tested on: cerebellar microexplants (P4); assay: Glutamate toxicity in P4 cerebellar microexplants and rescue by cPG; format: cell-based, Wistar rats
Description: Cerebellar Cell Culture Preparing and Coating of Cover Slips
Ten coverslips were placed into a large petri dish and washed in 70% alcohol for 5 minutes, then washed with Millipore H2O. The coverslips were air dried, then coated with Poly-D-Lysine (1 mg/ml stock solution in PBS, 90-100 μl) and incubated for 2 hours at 34 C.
Postnatal day 4 Wistar rats were used for the study. Rats were placed in ice for 1 minute, the heads were decapitated and the cerebellum removed on ice. […] The tissue was sieved through (125 μm pore size gaze) and centrifuged (2 minutes at 60 g) two times for a medium exchange into serum-free BSA-supplemented START V medium (Biochrom). The second centrifugation step was done with 1 ml of START V medium. The microexplants were reconstituted into 500 μl of START V medium and put on ice
Two hours after PDL-coating, the slides were washed with Millipore H2O and air dried. Each slide was placed into a small 35 mm petri dish and 40 μl of START V/cell suspension added. The tissue was incubated for 2 hours at 34 C (settlement period). START V-medium (1 ml) was then added to the petri dish and cultivated at 34 C/5% CO2/100% humidity for 48 hours. […] Finally, the microexplants were rinsed in PBS.
10 μl of toxin (L-glutamate-100 mM in Millipore water) was applied simultaneously with cPG (from bachem, 10 mM stock prepared in PBS and diluted to final concentrations between 1-100 nM) for Study 1. A delay in administration of cPG at 6 hours after glutamate treatment was performed for Study 2.

[2] = tested on: 6-OHDA induced nigral-striatal lesion; assay: Apomorphine-induced rotations after 6-OHDA induced nigral-striatal lesion; format: in vivo, Wistar rats
Description: Twenty male Wistar rats (280-310 g) were used. After exposing the skull, 6-OHDA (8 μg in a base of 2 μl 0.9% saline containing 1% ascorbic acid) was administered into the right medial forebrain bundle (MFB) using co-ordinates AP +4.7 mm, R 1.6 mmv-8 mm under 3% halothane anaesthesia. 6-OHDA was injected through a 25 G needle connected via a polyethylene catheter to a 100 μl Hamilton syringe. The 6-OHDA was infused by a microdialysis infusion pump at a rate of 0.5 μl/min. The needle was left in the brain for a further 3 minutes before being slowly withdrawn. The skin was sutured with 2.0 silk and the rats were allowed to recover from anaesthesia. The rats were housed in a holding room with free access to food and water at all times except during behavioural testing.
Cyclic PG was dissolved in saline. Four different doses of cPG (0, 0.1 0.5 1 mg/kg, Bachem) were administered intraperitoneally 2 h post lesion.
At 7 days post-lesion, rats were injected with 0.1 mg/kg apomorphine and the number of contralateral rotations/hour was recorded and calculated using a computerised Rotameter (St Diego Instruments). Experimenter was blinded from the treatment groups.

[3] = tested on: rat Hippocampal Organotypic cultures exposed to NMDA; conditions: lower (1 μM) or higher (50-100 μM) concentrations reduced neuronal damage to a lesser extent; cited from earlier work
[4] = fetal sheep, cited from earlier work

N[C@@H](CCC(=O)O)C(=O)O [Glutamate, L-glutamate, reference compound]
loss of cerebellum neurons ([1]; Study 1, glutamate treatment alone): 85%

O=C1NCC(=O)N2CCC[C@@H]12 [cPG, cyclic Prolyl Glycine]
neuron number compared to the normal control group ([1]; a further lower dose of cPG): significant increase | glutamate-induced neurotoxicity ([1]; given either immediately or 6 hours after the glutamate treatment): completely prevented | number of contralateral rotations/hour ([2]; 1 mg cPG intraperitoneally 2 h post lesion, 7 days post-lesion, 0.1 mg/kg apomorphine, n=5, FIG. 5): 154±64.1 rotations/hour | reduction of functional deficit (apomorphine induced rotations) ([2]; highest dose tested (1 mg/kg), ns): 47%

glycine-proline-glutamate [GPE]
concentration giving the highest degree of neuroprotection [3]: 10 µM

insulin-like growth factor I [IGF-I]
dose at which all the neuroprotective effects are lost ([4]; 1 μg more neuroprotective than 100 ng): 10 µg | dose that usually killed the sheep fetus [4]: ≥ 100 µg
